The subject of this assay is MAP kinase cascade activating protein according to SEQ ID NO: 4, 6, 12, 16, 18, 22, 26, 28, 30, 44, 50, 52, 60, 68, 72, 104, 110, 112, 116, 122, 132, 142, 146 …. The assay can be described thus: Screening for inhibitors in 293-EBNA reporter systems expressing MAP kinase cascade activating proteins. The note with it: compound 10 μM; 50 ng expression plasmid; 24 hours; all 27 SEQ ID NO systems. In kind it is cell-based, human. As for the experimental part: (in the presence of 5% CO2). Then, using FuGENE6 (Roche), 50 ng of each of the expression plasmids obtained in Example 2 above which comprise a gene encoding the MAP kinase cascade activating protein according to SEQ ID NO: 4, 6, 12, 16, 18, 22, 26, 28, 30, 44, 50, 52, 60, 68, 72, 104, 110, 112, 116, 122, 132, 142, 146, 148, 150, 152 or 154 were respectively co-transfected in a well with 60 ng of pFR-Luc ([…]), 0.25 ng of pFA2-Elk1 ([…]), 5 ng of pcDNA 3.1 (+) (INVITROGEN) into which human p38 gene had been incorporated and 30 ng of pcDNA 3.1 (+) (INVITROGEN) into which human JNJ1 β 1 gene had been incorporated. The method used for introduction was in accordance with the attached protocol. After culturing for 2 hours at 37° C., any one of 1000 types of compound that were held in stock, was added to a final concentration of 10 μM per well, and after further culturing for 24 hours at 37° C., reporter activity, which reflects MAP kinase cascade activition, was measured by Picagene LT2 (purchased from Toyo Ink Manufacturing) in accordance with the manufacturer's instructions. Using a well to which no compound was added as a control, compounds were screened to identify a compound which reduced reporter activity in the well to which it was added to 50% or lower. […]

Each structure is given as a SMILES string. Some results are limits rather than exact numbers.

Turning to `CN[C@@H]1C[C@H]2O[C@@](C)([C@@H]1OC)n1c3ccccc3c3c4c(c5c6ccccc6n2c5c31)C(=O)NC4` [staurosporine], the “reporter activity relative to control well to which no compound was added” value is reported as at most 50%.

Values taken from patent publication US20030092037A1, “Elk1 phosphorylation related gene” (priority 2001, published 2003).
